Here are results for 4 molecules from patent publication US7173053B2, “N-formyl hydroxylamine derivatives as inhibitors of bacterial polypeptide formylase for treating microbial infections” (British Biotech Pharmaceuticals Limited, priority 2000, dated 2007).

One experiment concerns S. pneumoniae ATCC 49619. Kind of experiment: agar plate dilution MIC, S. pneumoniae ATCC 49619. Particulars: Streptococcus pneumoniae, ATCC49619, Iso-Sensitest agar pH 7.2, 18 to 24 hr incubation. Format: cell-based. The method, then: (§1) The susceptibilities of two strains of bacteria to the compounds of Example 1–4 were determined by a standard agar plate dilution method following recommendations in British Society for Antimicrobial Chemotherapy Working Party. 1991, “A guide to sensitivity testing British Society for Antimicrobial Chemotherapy, London, United Kingdom”. Briefly, Iso-Sensitest agar (pH 7.2: Oxoid, United Kingdom) is employed, supplemented with 5% horse blood (Oxoid) and 20 μg of NAD (Sigma) per ml are added to support growth of fastidious bacteria. The inoculum used is approximately 10^4 colony forming units of each isolate contained in a volume of 1 μl. Plates are incubated 18 to 24 hr in air, or for fasidious bacteria an atmosphere enriched with 4–6% carbon dioxide at 35° C. The MIC is determined as the lowest concentration of an antimicrobial tested that inhibited growth of the inoculum, disregarding a single persisting colony or faint haze caused by the inoculation.

The next experiment concerns S. aureus ATCC 29213. Description: agar plate dilution MIC, S. aureus ATCC 29213. It is filed as cell-based. Particulars: Staphylococcus aureus, ATCC29213, Iso-Sensitest agar pH 7.2, 18 to 24 hr incubation. The method, then: as §1

Converted amounts (≈) assume the structure as drawn.

With `CC(C)(C)[C@H](NC(=O)[C@H](CC1CCCC1)CN(O)C=O)c1nc2cc(Cl)ccc2[nH]1` [Example 2, N-[1-(5-Chloro-1H-benzoimidazol-2-yl)-2,2-dimethyl-propyl]-2-cyclopentylmethyl-3-(formyl-hydroxy-amino)-propionamide], the minimum inhibitory concentration (MIC) was 2 mg/L (≈ 4.6 µM) in the experiment on S. pneumoniae ATCC 49619 and 8 mg/L (≈ 18.4 µM) in the experiment with S. aureus ATCC 29213.

For `CC(C)(C)[C@H](NC(=O)[C@H](CC1CCCC1)CN(O)C=O)c1nc2ccccc2[nH]1` [Example 3, N-[1-(1H-Benzoimidazol-2-yl)-2,2-dimethyl-propyl]-2-cyclopentylmethyl-3-(formyl-hydroxy-amino)-propionamide], the minimum inhibitory concentration (MIC) against S. pneumoniae ATCC 49619 worked out at 2 mg/L (≈ 4.99 µM); with S. aureus ATCC 29213, 8 mg/L (≈ 20 µM).

For the molecule `CC(C)(C)[C@H](NC(=O)[C@H](CC1CCCC1)CN(O)C=O)c1nc2cc(F)ccc2[nH]1` [Example 1, 2R-Cyclopentylmethyl-N-[1S-(5-fluoro-1H-benzoimidazol-2-yl)-2,2-dimethyl-propyl]-3-(formyl-hydroxy-amino)-propionamide], the minimum inhibitory concentration (MIC) was determined as 2 mg/L (≈ 4.78 µM) in the experiment on S. pneumoniae ATCC 49619 and 4 mg/L (≈ 9.56 µM) with S. aureus ATCC 29213.

`CCCC[C@H](CN(O)C=O)C(=O)N[C@H](c1nc2ccccc2[nH]1)C(C)(C)C` [Example 4, 2-[(Formyl-hydroxy-amino)-methyl]-hexanoic acid [1-(1H-benzoimidazol-2-yl)-2,2-dimethyl-propyl]-amide]: the values for the MIC in the experiment on S. pneumoniae ATCC 49619 and with S. aureus ATCC 29213 were 4 mg/L (≈ 10.7 µM) and 8 mg/L (≈ 21.4 µM), respectively.

A word on the MIC: it is the least concentration at which growth counts as inhibited. Low readings indicate inhibition by little substance, high ones a need for much substance.
